Data: PubChem BioAssay AID248 (DTP/NCI, 2004)
Values joined by “and” are separate entries in the source; they are usually repeats but may differ in a detail not shown here. Equal values may be shown once. Toxic doses and inconclusive results are not listed. Rule as the data show it: active = T/C of 150% or more; inactive = T/C below 125%.

System: L1210 leukemia ip in BDF1 mice, survival T/C
Assay: NCI In Vivo Anticancer Drug Screen. Data for tumor model L1210 Leukemia (intraperitoneal) in B6D2F1 (BDF1) mice
Conditions: endpoint: mean survival time, higher = longer survival
In short: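 Tumor cells were implanted, animals were treated, and survival was followed. The result divides the treated measurement by the vehicle-control measurement.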

[1] = dose: 100.0 mg/kg/injection, schedule: Q04DX003 (ip), vehicle: saline
[2] = dose: 100.0 mg/kg/injection, schedule: Q04DX003 (ip), vehicle: Klucel (hydroxypropylcellulose) (HPC)
[3] = dose: 200.0 mg/kg/injection, schedule: Q04DX003 (ip), vehicle: Klucel (hydroxypropylcellulose) (HPC)
[4] = dose: 400.0 mg/kg/injection, schedule: Q04DX003 (ip), vehicle: Klucel (hydroxypropylcellulose) (HPC)
[5] = dose: 100.0 mg/kg/injection, schedule: Q01DX009 (ip), vehicle: Klucel (hydroxypropylcellulose) (HPC)
[6] = dose: 200.0 mg/kg/injection, schedule: Q01DX009 (ip), vehicle: Klucel (hydroxypropylcellulose) (HPC)
[7] = dose: 400.0 mg/kg/injection, schedule: Q01DX009 (ip), vehicle: Klucel (hydroxypropylcellulose) (HPC)

Measured: T/C

Cc1[nH]c2c(C)ccc(C)c2c(=O)c1Br
inactive: dose: 100.0 mg/kg/injection, schedule: Q01DX001 (ip), vehicle: other 91 % of control | dose: 200.0 mg/kg/injection, schedule: Q01DX001 (ip), vehicle: other 94 % of control | dose: 400.0 mg/kg/injection, schedule: Q01DX001 (ip), vehicle: other 86 % of control

CC1OC(=O)C(C)(Br)OC1=O (stereo not drawn)
inactive: dose: 100.0 mg/kg/injection, schedule: Q01DX001 (ip), vehicle: acetone 93 % of control | dose: 200.0 mg/kg/injection, schedule: Q01DX001 (ip), vehicle: acetone 104 % of control

CCN1/C(=C/C(C)=C/c2sc3ccccc3[n+]2CC)Sc2ccccc21
inactive: dose: 1.25 mg/kg/injection, schedule: Q01DX001 (ip), vehicle: other 111 % of control | dose: 2.5 mg/kg/injection, schedule: Q01DX001 (ip), vehicle: other 97 % of control | dose: 5.0 mg/kg/injection, schedule: Q01DX001 (ip), vehicle: other 103 % of control | dose: 25.0 micrograms/kg/injection, schedule: Q01DX001 (ip), vehicle: saline 98 % of control | dose: 25.0 micrograms/kg/injection, schedule: Q01DX009 (ip), vehicle: Klucel (hydroxypropylcellulose) (HPC) 100 % of control | dose: 50.0 micrograms/kg/injection, schedule: Q01DX001 (ip), vehicle: saline 93 % of control | dose: 50.0 micrograms/kg/injection, schedule: Q01DX009 (ip), vehicle: Klucel (hydroxypropylcellulose) (HPC) 101 % of control | dose: 100.0 micrograms/kg/injection, schedule: Q01DX001 (ip), vehicle: saline 104 % of control | dose: 100.0 micrograms/kg/injection, schedule: Q01DX009 (ip), vehicle: Klucel (hydroxypropylcellulose) (HPC) 108 % of control | dose: 200.0 micrograms/kg/injection, schedule: Q01DX001 (ip), vehicle: saline 96 % of control | dose: 200.0 micrograms/kg/injection, schedule: Q01DX009 (ip), vehicle: Klucel (hydroxypropylcellulose) (HPC) 104 % of control | dose: 200.0 micrograms/kg/injection, schedule: Q01DX015 (ip), vehicle: saline 105 % of control | dose: 400.0 micrograms/kg/injection, schedule: Q01DX009 (ip), vehicle: Klucel (hydroxypropylcellulose) (HPC) 97 % of control

CCCC(N=Cc1ccccc1O)C(=O)O.CCCC(N=Cc1ccccc1O)C(=O)O.[Fe] (stereo not drawn)
inactive: dose: 25.0 mg/kg/injection, schedule: Q01DX009 (ip), vehicle: saline 95 % of control | dose: 25.0 mg/kg/injection, schedule: Q04DX003 (ip), vehicle: saline 98 % of control | dose: 50.0 mg/kg/injection, schedule: Q01DX009 (ip), vehicle: saline 93 % of control | dose: 50.0 mg/kg/injection, schedule: Q04DX003 (ip), vehicle: saline 98 % of control | [1] 96 % of control and 98 % of control

CCC1CCC(NC(=O)NCCF)CC1 (stereo not drawn)
inactive: dose: 75.0 mg/kg/injection, schedule: Q01DX001 (ip), vehicle: other 98 % of control

Cc1ccc(C(=O)c2ccn[nH]2)cc1
inactive: dose: 100.0 mg/kg/injection, schedule: Q01DX001 (ip), vehicle: Klucel (hydroxypropylcellulose) (HPC) 93 % of control | [2] 96 % of control | dose: 200.0 mg/kg/injection, schedule: Q01DX001 (ip), vehicle: Klucel (hydroxypropylcellulose) (HPC) 94 % of control | [3] 93 % of control | dose: 400.0 mg/kg/injection, schedule: Q01DX001 (ip), vehicle: Klucel (hydroxypropylcellulose) (HPC) 98 % of control | [4] 96 % of control

O=S(=O)(O)c1ccc(Br)cc1
inactive: dose: 100.0 mg/kg/injection, schedule: Q01DX009 (ip), vehicle: saline 116 % of control | [1] 98 % of control | dose: 200.0 mg/kg/injection, schedule: Q01DX009 (ip), vehicle: saline 108 % of control | dose: 200.0 mg/kg/injection, schedule: Q04DX003 (ip), vehicle: saline 103 % of control | dose: 400.0 mg/kg/injection, schedule: Q01DX009 (ip), vehicle: saline 108 % of control | dose: 400.0 mg/kg/injection, schedule: Q04DX003 (ip), vehicle: saline 104 % of control

COc1ccc(/C=C(/c2ccccc2)[N+](=O)[O-])cc1
inactive: dose: 176.0 mg/kg/injection, schedule: Q01DX001 (ip), vehicle: carboxymethylcellulose (CMC) 102 % of control | dose: 264.0 mg/kg/injection, schedule: Q01DX001 (ip), vehicle: carboxymethylcellulose (CMC) 89 % of control | dose: 400.0 mg/kg/injection, schedule: Q01DX001 (ip), vehicle: carboxymethylcellulose (CMC) 89 % of control | dose: 600.0 mg/kg/injection, schedule: Q01DX001 (ip), vehicle: carboxymethylcellulose (CMC) 89 % of control

CC(=O)Nc1nc(C)c(CCCN(Cc2ccccc2)C(C)=O)c(=O)[nH]1
inactive: dose: 75.0 mg/kg/injection, schedule: Q01DX001 (ip), vehicle: Klucel (hydroxypropylcellulose) (HPC) 96 % of control | dose: 150.0 mg/kg/injection, schedule: Q01DX001 (ip), vehicle: Klucel (hydroxypropylcellulose) (HPC) 99 % of control | dose: 300.0 mg/kg/injection, schedule: Q01DX001 (ip), vehicle: Klucel (hydroxypropylcellulose) (HPC) 92 % of control

FC1(F)C2Cc3ccccc3C2C1(F)F (stereo not drawn)
inactive: [2] 96 % of control | [3] 98 % of control | [4] 100 % of control

C[SiH]1c2ccccc2CCc2ccccc21
inactive: [5] 102 % of control | [2] 104 % of control | [6] 104 % of control | [3] 105 % of control | [7] 106 % of control | [4] 107 % of control

Cc1ccc(NC(=O)c2ccc(Cl)cc2)cc1
inactive: [5] 95 % of control | [2] 97 % of control | [6] 99 % of control | [3] 103 % of control | [7] 90 % of control | [4] 103 % of control

CCCCCCCCc1c(C)nc(N)[nH]c1=O
inactive: dose: 100.0 mg/kg/injection, schedule: Q04DX002 (ip), vehicle: Klucel (hydroxypropylcellulose) (HPC) 100 % of control | dose: 200.0 mg/kg/injection, schedule: Q04DX002 (ip), vehicle: Klucel (hydroxypropylcellulose) (HPC) 100 % of control | dose: 400.0 mg/kg/injection, schedule: Q04DX002 (ip), vehicle: Klucel (hydroxypropylcellulose) (HPC) 104 % of control

CS(=O)(=O)N(CC(=O)O)Cc1ccc(F)cc1
inactive: dose: 100.0 mg/kg/injection, schedule: Q01DX009 (ip), vehicle: other 103 % of control | dose: 100.0 mg/kg/injection, schedule: Q04DX003 (ip), vehicle: other 98 % of control | dose: 200.0 mg/kg/injection, schedule: Q01DX009 (ip), vehicle: other 102 % of control | dose: 200.0 mg/kg/injection, schedule: Q04DX003 (ip), vehicle: other 104 % of control | dose: 400.0 mg/kg/injection, schedule: Q01DX009 (ip), vehicle: other 97 % of control | dose: 400.0 mg/kg/injection, schedule: Q04DX003 (ip), vehicle: other 94 % of control

CCOC(=O)COc1ccc(Cl)cc1
inactive: [5] 97 % of control | [6] 103 % of control | [7] 92 % of control

CN(N)C(=O)Nc1ccccc1[N+](=O)[O-]
inactive: dose: 75.0 mg/kg/injection, schedule: Q01DX001 (ip), vehicle: carboxymethylcellulose (CMC) 96 % of control | dose: 150.0 mg/kg/injection, schedule: Q01DX001 (ip), vehicle: carboxymethylcellulose (CMC) 102 % of control

O=C(Cc1ccccc1)NCCCl
inactive: dose: 100.0 mg/kg/injection, schedule: Q04DX002 (ip), vehicle: saline with Tween-80 103 % of control | dose: 200.0 mg/kg/injection, schedule: Q04DX002 (ip), vehicle: saline with Tween-80 103 % of control | dose: 400.0 mg/kg/injection, schedule: Q04DX002 (ip), vehicle: saline with Tween-80 105 % of control

CN(C)CCSS(=O)(=O)O
inactive: dose: 100.0 mg/kg/injection, schedule: Q01DX001 (ip), vehicle: saline 93 % of control | dose: 200.0 mg/kg/injection, schedule: Q01DX001 (ip), vehicle: saline 96 % of control | dose: 400.0 mg/kg/injection, schedule: Q01DX001 (ip), vehicle: saline 102 % of control
